Like-named read-outs stand apart in the source and are kept apart here.
Legend:
[1] = single dose study: safety and tolerability
Excerpt: (§1) Evaluation of pharmacokinetics, pharmacodynamics (reduction of free PCSK9 from baseline) and safety and tolerability of single doses of the compound of formula (I) were studied in normal healthy male volunteers aged 18-50. […] Additionally, this trial examined the effect of permeation enhancer dose on PK, the effect of food on PK, and the effect of various capsule formulations on PK. The pharmacodynamic endpoint measured in this study was target engagement (% change in free PCSK9).
(§2) The capsules were over-encapsulated with enteric capsules (HPMC Vcaps® Enteric, Capsugel®, Lonza).

[2] = nonhuman primates; subcutaneous dosing plus oral arms; up to/including highest doses administered
human PCSK9 = human PCSK9 (Homo sapiens, UniProt Q8NBP7)
Chain of human PCSK9 (Q8NBP7 153-692): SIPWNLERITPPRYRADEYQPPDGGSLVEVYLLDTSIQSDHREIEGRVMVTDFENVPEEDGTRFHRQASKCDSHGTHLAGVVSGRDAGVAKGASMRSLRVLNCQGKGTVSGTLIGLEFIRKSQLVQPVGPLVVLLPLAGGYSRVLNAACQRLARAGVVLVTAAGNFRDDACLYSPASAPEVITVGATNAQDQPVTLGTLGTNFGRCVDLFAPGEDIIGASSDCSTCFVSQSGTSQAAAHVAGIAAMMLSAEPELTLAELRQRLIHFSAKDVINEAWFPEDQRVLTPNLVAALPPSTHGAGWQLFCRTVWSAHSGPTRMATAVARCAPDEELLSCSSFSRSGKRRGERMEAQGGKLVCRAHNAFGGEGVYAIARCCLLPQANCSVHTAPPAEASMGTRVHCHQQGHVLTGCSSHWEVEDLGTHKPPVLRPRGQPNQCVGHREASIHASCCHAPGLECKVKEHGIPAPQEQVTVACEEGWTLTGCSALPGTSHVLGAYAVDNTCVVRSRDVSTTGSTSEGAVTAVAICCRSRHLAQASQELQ

[3] = non-human primates; co-administration with permeation enhancer (Labrasol, sodium caprate)
[4] = Excerpt: as §1, §2
LDL-C [5] = assay: multiple dose study: LDL-C reduction in participants on statin background therapy
Description: (§3) Standard takeaway meals were provided to participants to consume no less than 30 minutes after receiving their once daily dose. In addition to standard safety monitoring, including vital signs, ECG and laboratory safety tests, plasma lipids (total cholesterol, LDL-C, HDL-C and TG) were measured. LDL-C was monitored as part of the safety labs.
Blood LDL-cholesterol levels were measured using standard clinical laboratory testing procedures predose and on day 3, 7, 14, 15 and 21 after dosing.

[6] = stability of amorphous salt forms, impurity levels (FIG. 5); assay type: physicochemical; settings: chloride salt made with HCl acidification step, risk of excess HCl
free PCSK9 = biological target: T1, free PCSK9 (Homo sapiens, UniProt Q8NBP7); assay: single dose study: reduction of free plasma PCSK9 from baseline (target engagement); assay type: in vivo
T1 construct: reduction in plasma levels of free PCSK9 protein; from tissue; host or cells: plasma of healthy human volunteers (in vivo, endogenous)
T1 sequence (Q8NBP7 153-692): as above
T1 sequence (Q8NBP7 31-152 partner limits assumed): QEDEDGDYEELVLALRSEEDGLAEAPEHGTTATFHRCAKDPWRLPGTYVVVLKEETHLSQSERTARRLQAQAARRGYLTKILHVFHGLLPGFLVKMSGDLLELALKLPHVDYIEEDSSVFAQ

[7] = rats; co-administration with permeation enhancer (Labrasol, sodium caprate)
[8] = rats; subcutaneous dosing plus oral arms; up to/including highest doses administered
[9] = once daily for 14 days
Description: as §3

LDL-C [10] = settings: hard gelatin capsule, 5 mg plus 180 mg sodium caprate, participants taking statins
LDL-C [11] = settings: phase 3 lipid trials, N Engl J Med 2020; cited from earlier work
LDL-C [12] = settings: ODYSSEY, N Engl J Med 2018; cited from earlier work
LDL-C [13] = settings: FOURIER, N Engl J Med 2017; cited from earlier work
[14] = single oral doses 10 to 300 mg, healthy male volunteers
[15] = Panel A 200 mg no PE (permeation enhancer)
[16] = Panel B 120 mg with 720 mg Labrasol
[17] = Panel C 40 mg with 720 mg Na Caprate
[18] = Panel C 100 mg with 1800 mg Na caprate

With `COc1ccc(C[C@@H]2NC(=O)[C@H]([C@@H](C)O)NC(=O)[C@@H]3[C@@H]4CCN3C(=O)[C@@H]3Cc5cn(c6ccc(F)cc56)CCCCCCN(Cc5ccc(cc5)CCNC(=O)[C@]5(C)CCCN5C2=O)C(=O)CCC(=O)N[C@@H](C)C(=O)N[C@H](CNC(=O)CCCCC[N+](C)(C)C)C(=O)N[C@@H](Cc2cccc(c2)CNC(=O)CO4)C(=O)N3)cc1.[Cl-]` [Compound 1] the “adverse events related to Compound 1 reported by the Investigator” value [1, 14] was “abdominal discomfort, diarrhea, dyspepsia, headache, and maculopapular rash”, the “deaths or severe adverse events (SAEs)” value [1, 14] was “no death or severe adverse events” and the tolerability ([1]; single oral doses up to 300 mg, healthy male volunteers) was “well tolerated”. The “severity of treatment-related AEs” value ([1]; single oral doses, exception of one participant with severe back pain, not dose-related) was “mild/moderate”, the “adverse effects in GLP toxicity study” value [2] was “no adverse effects were observed” and the “binding affinity against human PCSK9” value (human PCSK9) was “picomolar”. For the same molecule, the GI absorption [3] was “improved”, the “effect of food on plasma exposure” value ([4]; food consumed 30 minutes after the dose) was “negligible effect” and the “effect of food on plasma exposure” value ([4]; food consumed 30 minutes before dosing, compared to fasted) was “lower plasma exposure”. The “PK in the presence of Labrasol versus sodium caprate” value ([4]; single dose) was “similar”, the “effect of permeation enhancers on absorption (Cmax and AUC0-24)” value ([4]; single dose, with vs without permeation enhancer) was “improve absorption” and the “plasma exposure versus dose” value ([4]; single oral doses 10 to 300 mg) was “dose dependent increase”. The “mean reduction of LDL-C” value (LDL-C [5]; 10 mg plus 180 mg sodium caprate, once daily for 14 days, statin background) was “approximately 60%”, the “mean reduction of LDL-C” value (LDL-C [5]; 10 mg plus 360 mg sodium caprate, once daily for 14 days, statin background) was “approximately 64%” and the “mean reduction of plasma LDL-C” value (LDL-C [5]; 20 mg plus 360 mg sodium caprate, once daily for 14 days, statin background) was “approximately 62%”. The “stability / impurity levels of amorphous salt” value [6] was “higher impurity levels”, the “GM Maximum Percent Target Reduction From Baseline of Free PCSK9” value (free PCSK9; Panel A 10 mg single dose) was 93.32% and the “Posterior Probability of True GM Free PCSK9 Maximum Percent Reduction ≥80%” value (free PCSK9; Panel A 10 mg single dose) was greater than 0.99. The “GM Maximum Percent Target Reduction From Baseline of Free PCSK9” value (free PCSK9; [15]) was 96.83%, the “Posterior Probability of True GM Free PCSK9 Maximum Percent Reduction ≥80%” value (free PCSK9; [15]) was greater than 0.99 and the “GM Maximum Percent Target Reduction From Baseline of Free PCSK9” value (free PCSK9; Panel A 200 mg single dose) was 99.46%. The “Posterior Probability of True GM Free PCSK9 Maximum Percent Reduction ≥80%” value (free PCSK9; Panel A 200 mg single dose) was greater than 0.99, the “GM Maximum Percent Target Reduction From Baseline of Free PCSK9” value (free PCSK9; Panel B 35 mg single dose) was 98.72% and the “Posterior Probability of True GM Free PCSK9 Maximum Percent Reduction ≥80%” value (free PCSK9; Panel B 35 mg single dose) was greater than 0.99. For the same molecule, the “GM Maximum Percent Target Reduction From Baseline of Free PCSK9” value (free PCSK9; [16]) was 99.43%, the “Posterior Probability of True GM Free PCSK9 Maximum Percent Reduction ≥80%” value (free PCSK9; [16]) was greater than 0.99 and the “GM Maximum Percent Target Reduction From Baseline of Free PCSK9” value (free PCSK9; Panel B 300 mg single dose) was 99.68%. For the same molecule, the “Posterior Probability of True GM Free PCSK9 Maximum Percent Reduction ≥80%” value (free PCSK9; Panel B 300 mg single dose) was greater than 0.99, the “GM Maximum Percent Target Reduction From Baseline of Free PCSK9” value (free PCSK9; [17]) was 97.94% and the “Posterior Probability of True GM Free PCSK9 Maximum Percent Reduction ≥80%” value (free PCSK9; [17]) was greater than 0.99. For the same molecule, the “GM Maximum Percent Target Reduction From Baseline of Free PCSK9” value (free PCSK9; Panel C 100 mg single dose) was 99.36%, the “Posterior Probability of True GM Free PCSK9 Maximum Percent Reduction ≥80%” value (free PCSK9; Panel C 100 mg single dose) was greater than 0.99 and the “GM Maximum Percent Target Reduction From Baseline of Free PCSK9” value (free PCSK9; [18]) was 99.18%. The “Posterior Probability of True GM Free PCSK9 Maximum Percent Reduction ≥80%” value (free PCSK9; [18]) was greater than 0.99, the GI absorption [7] was “improved” and the “adverse effects in GLP toxicity study” value [8] was “no adverse effects were observed”. For the same molecule, the “PK of 10 mg plus 180 mg sodium caprate versus 10 mg plus 360 mg sodium caprate” value [9] was “similar” and the “% LDL-C reduction from baseline” value (LDL-C [10]) was less than 50%.

For `COc1ccc(C[C@@H]2NC(=O)[C@H]([C@@H](C)O)NC(=O)[C@@H]3[C@@H]4CCN3C(=O)[C@@H]3Cc5cn(c6ccc(F)cc56)CCCCCCN(Cc5ccc(cc5)CCNC(=O)[C@]5(C)CCCN5C2=O)C(=O)CCC(=O)N[C@@H](C)C(=O)N[C@H](CNC(=O)CCCCC[N+](C)(C)C)C(=O)N[C@@H](Cc2cccc(c2)CNC(=O)CO4)C(=O)N3)cc1` [Compound 3], the “stability / impurity levels of amorphous salt” value [6] was “demonstrate stability”.

With `COc1ccc(C[C@@H]2NC(=O)[C@H]([C@@H](C)O)NC(=O)[C@@H]3[C@@H]4CCN3C(=O)[C@@H]3Cc5cn(c6ccc(F)cc56)CCCCCCN(Cc5ccc(cc5)CCNC(=O)[C@]5(C)CCCN5C2=O)C(=O)CCC(=O)N[C@@H](C)C(=O)N[C@H](CNC(=O)CCCCC[N+](C)(C)C)C(=O)N[C@@H](Cc2cccc(c2)CNC(=O)CO4)C(=O)N3)cc1` [compound of formula (I)] the tolerability ([1]; single and multiple oral doses in healthy volunteers) was “generally well tolerated”, the “lowering of LDL-cholesterol in the blood from baseline” value (LDL-C [5]; 14 days of once daily oral dosing, background of moderate-to-high intensity statin therapy) was “approximately 65%” and the “mean maximum reduction of free plasma PCSK9 levels from baseline” value (free PCSK9; single doses, all dose levels studied) was “more than 90%”.

For Inclisiran, the “reduction in LDL-C” value (LDL-C [11]) is listed as 49-52%.

For “Praluent: anti-PCSK9 monoclonal antibody”, the “reduction in LDL-C” value (LDL-C [12]) is listed as 59%.

B1: Repatha: anti-PCSK9 monoclonal antibody (antibody, chains of the INN, looked up, V domains shown)
VH: EVQLVQSGAEVKKPGASVKVSCKASGYTLTSYGISWVRQAPGQGLEWMGWVSFYNGNTNYAQKLQGRGTMTTDPSTSTAYMELRSLRSDDTAVYYCARGYGMDVWGQGTTVTVSS
VL: ESALTQPASVSGSPGQSITISCTGTSSDVGGYNSVSWYQQHPGKAPKLMIYEVSNRPSGVSNRFSGSKSGNTASLTISGLQAEDEADYYCNSYTSTSMVFGGGTKLTVL
In the case of B1, the “reduction in LDL-C” value (LDL-C [13]) is listed as 59%.

Reference: patent US20240238367A1, “COMPOUNDS FOR TREATING CONDITIONS RELATED TO PCSK9 ACTIVITY” (MERCK SHARP & DOHME LLC, priority 2021, published 2024)
